Data on 15 compounds can be found in PubChem BioAssay (NCI).

SMILES strings stand for the structures.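 In this assay, cells in 96-well plates receive the compound at five concentrations for 48 hours. Endpoints are linearly interpolated between the surrounding concentrations. GI50: concentration for 50% inhibition of growth. The concentration for full growth arrest is given as TGI.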

Some test systems named below: CCRF-CEM leukemia; COLO 205 colon; EKVX NSCLC; HT29 colon; KM12 colon; M14 melanoma; NCI-H460 lung; SN12C renal; T-47D breast.
What all share (test): NCI-60 cell line screen, 48 h

`Cc1ccccc1NC(=O)/C(=N\NC(N)=S)C(C#N)c1ccccc1` (stereo not given): the TGI with CCRF-CEM leukemia, in the experiment with COLO 205 colon, with EKVX NSCLC, in the experiment on HT29 colon, with KM12 colon and with M14 melanoma was more than 100 µM throughout. For the same compound, the TGI with NCI-H460 lung and in the experiment with SN12C renal was more than 100 µM throughout.

Turning to `COC(=O)c1c(O)ccc(O)c1C(C(C)=O)C(C)=O`, the TGI with CCRF-CEM leukemia, with COLO 205 colon, in the experiment with EKVX NSCLC, in the experiment with HT29 colon, in the experiment with KM12 colon and in the experiment on M14 melanoma was more than 100 µM in each case. Besides, the TGI with NCI-H460 lung and in the experiment on SN12C renal was more than 100 µM in each case.

Turning to `CN(c1ccccc1)c1cc2ccccc2nn1`, the TGI in the experiment on CCRF-CEM leukemia, in the experiment with COLO 205 colon, in the experiment with EKVX NSCLC, with HT29 colon, in the experiment on KM12 colon and with M14 melanoma was more than 100 µM each time. Moreover, the TGI with NCI-H460 lung and with SN12C renal was more than 100 µM throughout.

Turning to `O=C(NC1CC1)c1c(O)[nH]c(=S)[nH]c1=O`, the TGI with CCRF-CEM leukemia, in the experiment on COLO 205 colon, in the experiment on HT29 colon, in the experiment with KM12 colon, with M14 melanoma and in the experiment on NCI-H460 lung was more than 100 µM each time. The compound also had a TGI with SN12C renal of more than 100 µM.

With `O=C(O)c1ccc2c(c1)C(=O)N(c1ccc(S(=O)(=O)c3ccc(N4C(=O)c5ccc(C(=O)O)cc5C4=O)cc3)cc1)C2=O`, the TGI with CCRF-CEM leukemia, in the experiment on COLO 205 colon, in the experiment on EKVX NSCLC, with HT29 colon, with KM12 colon and with M14 melanoma was more than 100 µM in each case. Moreover, the TGI in the experiment with NCI-H460 lung and in the experiment with SN12C renal was more than 100 µM throughout.

In the case of `CC1(C)c2ccccc2N2C(c3ccccc3)=NOC21C` (stereo not given), the TGI in the experiment on CCRF-CEM leukemia, with COLO 205 colon, with EKVX NSCLC, in the experiment on HT29 colon, in the experiment with KM12 colon and in the experiment on M14 melanoma was more than 100 µM each time. In addition, the TGI in the experiment on NCI-H460 lung and in the experiment on SN12C renal was more than 100 µM in each case.

Take `O=S(=O)(NC1=NCCN1C(=S)SN1CCn2c1nsc2=S)c1ccc(Oc2ccccc2)cc1`: the GI50 in the experiment with COLO 205 colon is more than 100 µM; in the experiment with EKVX NSCLC it was more than 100 µM; in the experiment with HT29 colon, 54.7 µM; with KM12 colon it was 39.7 µM; with M14 melanoma it was more than 100 µM; in the experiment with NCI-H460 lung, 51.2 µM. In addition, the GI50 in the experiment on SN12C renal was 59.8 µM; in the experiment with T-47D breast, 81.3 µM. For the same compound, the TGI in the experiment on COLO 205 colon, in the experiment with EKVX NSCLC, with HT29 colon, in the experiment with KM12 colon, in the experiment with M14 melanoma and in the experiment on NCI-H460 lung was more than 100 µM in each case. The TGI in the experiment with SN12C renal and in the experiment on T-47D breast was more than 100 µM throughout.

Turning to `C[P+]1(Cc2ccccc2)CCCC1`, the TGI in the experiment with CCRF-CEM leukemia, with COLO 205 colon, with EKVX NSCLC, in the experiment with HT29 colon, in the experiment on KM12 colon and with M14 melanoma was more than 100 µM in each case. Moreover, the TGI in the experiment with NCI-H460 lung and in the experiment on SN12C renal was more than 100 µM in each case.

Turning to `CC1OC(n2cc(C(F)(F)F)c(=O)[nH]c2=O)C=CC1=O` (stereo not given), the TGI in the experiment on COLO 205 colon worked out at 35.2 µM; with HT29 colon, 54.6 µM; in the experiment on KM12 colon, 38.1 µM; with M14 melanoma, 59.8 µM; in the experiment with NCI-H460 lung, 48.6 µM; in the experiment with SN12C renal it was 57.8 µM.

On to `CCOC(=O)C1=C(C)NC(=O)NC1c1ccc(OC)cc1OC` (stereo not given), for which the TGI with CCRF-CEM leukemia, in the experiment with COLO 205 colon, in the experiment with EKVX NSCLC, in the experiment with HT29 colon, in the experiment with KM12 colon and in the experiment with M14 melanoma was more than 100 µM throughout. The TGI with NCI-H460 lung and with SN12C renal was more than 100 µM each time.

In the case of `CC(=O)OCC1OC(n2cccnc2=O)C(OC(C)=O)C1OC(C)=O` (stereo not given), the TGI with CCRF-CEM leukemia, in the experiment with COLO 205 colon, in the experiment on EKVX NSCLC, in the experiment with HT29 colon, with KM12 colon and with M14 melanoma was more than 100 µM each time. Besides, the TGI in the experiment with NCI-H460 lung and in the experiment with SN12C renal was more than 100 µM each time.

As for `CN(C)NC1=C([N+](=O)[O-])C=NN(c2ccccc2)C1`, the TGI in the experiment on CCRF-CEM leukemia is 4.52 µM; in the experiment with COLO 205 colon, 3.27 µM; with EKVX NSCLC it was 3.52 µM; in the experiment on HT29 colon, 3.66 µM; in the experiment on KM12 colon it was 11.9 µM; in the experiment with M14 melanoma it was 3.23 µM. Besides, the TGI came out at 4.1 µM in the experiment with NCI-H460 lung and 3.22 µM in the experiment on SN12C renal.

In the case of `N#C/C(=C\c1c(O)cc(O)cc1O)C(N)=O`, the TGI in the experiment on CCRF-CEM leukemia, in the experiment with COLO 205 colon, with EKVX NSCLC, with HT29 colon, with KM12 colon and with M14 melanoma was more than 100 µM in each case. Besides, the TGI in the experiment with NCI-H460 lung and in the experiment on SN12C renal was more than 100 µM in each case.

As to `Cc1cccc(C)c1NC(=O)CCC(=O)NC(N)=NC#N`, the TGI in the experiment with CCRF-CEM leukemia, in the experiment on COLO 205 colon, in the experiment on EKVX NSCLC, in the experiment on HT29 colon, in the experiment on KM12 colon and in the experiment with M14 melanoma was more than 100 µM in each case. The TGI in the experiment with NCI-H460 lung and in the experiment on SN12C renal was more than 100 µM in each case.

In the case of `Cn1[nH]cc2ccc3nc4ccccc4c(=O)c3c21`, the TGI in the experiment on CCRF-CEM leukemia was more than 100 µM; in the experiment with COLO 205 colon, 92.6 µM; in the experiment with EKVX NSCLC it was more than 100 µM; in the experiment on HT29 colon it was more than 100 µM; in the experiment with KM12 colon it was more than 100 µM; in the experiment with M14 melanoma, more than 100 µM. Moreover, the TGI was more than 89.5 µM with NCI-H460 lung and more than 100 µM with SN12C renal.
